Series [1] in a line: Drug uptake in human SY-cells xenografted mouse tumor at 200 kBq, iv after 15 to 25 mins by positron emission tomography. The class given is ADME, organism-based, Neoplasm. As to conditions: in vivo; call rule not given here. On the technique in general: A xenograft is tissue or cells of one species grown in another, often human tumour cells in immunodeficient mice.
Series [2] can be described thus: Drug uptake in human SY-cells xenografted mouse tumor at 20 MBq, iv after 50 to 60 mins by positron emission tomography. Particulars: in vivo. Type of series: ADME, organism-based, Neoplasm.

Take `OC[C@H]1O[C@@H](O)[C@H]([18F])[C@@H](O)[C@@H]1O` [FLUDEOXYGLUCOSE-F18]: the Drug uptake result in series [1] is “Active”.

Regarding `[11CH3]SCC[C@H](N)C(=O)O`, in series [2], the Drug uptake entry is on record as “Active”.

Regarding `CC([11CH3])(N)C(=O)O` (stereo not drawn), the Drug uptake entry in series [2] is on record as “Active”.

These data come from ChEMBL document CHEMBL1770151, “An efficient and expedient method for the synthesis of 11C-labeled α-aminoisobutyric acid: a tumor imaging agent potentially useful for cancer diagnosis” (Bioorg Med Chem Lett, 2011).
